What was measured:
[1] = biological target: hα6(D199Y) + hβ4 + hβ3 nAChR (Homo sapiens, UniProt P30926+Q15825, D199Y); test: Oocyte two-electrode voltage clamp; assay type: cell-based
Procedure: (§1) We planned to introduce identical amounts of cRNA, presumably producing equal amounts of each subunit protein, into oocytes largely due to lack of information about the levels of mRNA for each subunits that compose α6*-nAChRs in neurons or other cells. Concentrations of cRNAs for each nAChR α and β subunits (WT, mutant or variant) were adjusted to 500 ng μL^−1. We provisionally assumed that hα6 or its variants in association with hβ2 or hβ4 subunits would form complexes having 2:3 and/or 3:2 ratios of the indicated subunits and that oocytes also injected with WT or mutant form of β3 subunits (i.e., β3^V9’S) would express nAChR with 2:2:1 ratios of α:β:(β3 or β3^V9’S) subunits. For expression of binary nAChRs (i.e., two subunit containing nAChRs; α + β but not β3) cRNA mixtures were prepared by mixing 1 μL of cRNA for each subunit and an additional μL of RNAse free water (i.e., total volume 3 μL). Similarly for expression of ternary nAChRs [i.e., three subunit containing nAChRs; (α + β) + (β3 or β3^V9’S)] cRNA mixtures were prepared by mixing 1 μL of cRNA for each subunit. Several preparations of each mixture were prepared and stored at −80°C until further use. Injection of 138 nL of cRNA, out of 3 μL cRNA mixtures, into each oocyte would deliver ~23 ng of cRNA for each subunit whether binary or ternary nAChRs are expressed.
(§2) Two to 5 days after injection, oocytes were placed in a small-volume chamber and continuously perfused with OR2. The chamber was grounded through an agarose bridge. The oocytes were voltage-clamped at −70 mV (unless otherwise noted) to measure agonist or antagonist induced currents using Axoclamp 900A and pClamp 10.2 software (Molecular Devices, Sunnyvale, CA). The current signal was low-pass filtered at 10 Hz with the built-in low-pass Bessel filter in the Axoclamp 900A and digitized at 20 Hz with Axon Digidata1440A and pClamp10. […] Drugs (agonists and antagonists) were prepared daily in OR2. Drug was applied using a Valvelink 8.2 perfusion system (Automate scientific, Berkeley, CA). […] Then for the purpose of comparison electrophysiological recordings were performed in a given day in a given batch of oocytes following the same order of injections. […] All hβ4*-nAChR recordings were done in similar conditions to facilitate comparisons between hα6hβ4- and hα6hβ4hβ3-nAChRs. All electrophysiological measurements were conducted or checked in at least two batches of oocytes.
(§3) Raw data was collected and processed in part using pClamp 10.2 (Molecular Devices, Sunnyvale, CA), Origin 7.5 (OriginLab Corporation, Northampton, MA) and a spreadsheet (Excel; Microsoft, Bellevue, WA). Peak current amplitudes (Imax) are reported as mean ± SEM (for results from at least three oocytes, i.e., n = 3).

[2] = biological target: T1, hα6(R87C) + WT hβ2 + hβ3^V9’S nAChR (Homo sapiens, UniProt P17787+Q15825, R87C); test: Oocyte two-electrode voltage clamp; assay type: cell-based; details: ACh, nicotine or atropine; hβ2 type not specified
T1 construct: Full length capped mRNA (i.e., cRNA) was transcribed from linearized plasmids; expressed in transfected cells; host or cells: Xenopus laevis oocytes injected with cRNA
T1 sequence (Q15825 26-494 R87C): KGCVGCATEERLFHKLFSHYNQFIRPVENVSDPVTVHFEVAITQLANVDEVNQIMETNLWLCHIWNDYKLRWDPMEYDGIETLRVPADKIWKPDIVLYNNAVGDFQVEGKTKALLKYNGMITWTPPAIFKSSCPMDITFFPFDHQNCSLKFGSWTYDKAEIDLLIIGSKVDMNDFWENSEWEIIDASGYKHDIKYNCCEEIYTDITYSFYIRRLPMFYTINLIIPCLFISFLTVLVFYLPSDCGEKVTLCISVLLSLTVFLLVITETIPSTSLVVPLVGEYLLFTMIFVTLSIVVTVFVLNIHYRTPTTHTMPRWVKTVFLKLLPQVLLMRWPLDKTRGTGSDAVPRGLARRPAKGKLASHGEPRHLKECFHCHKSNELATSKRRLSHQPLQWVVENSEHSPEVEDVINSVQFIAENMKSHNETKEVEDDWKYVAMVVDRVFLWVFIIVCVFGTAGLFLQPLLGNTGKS
T1 sequence (P17787 26-502): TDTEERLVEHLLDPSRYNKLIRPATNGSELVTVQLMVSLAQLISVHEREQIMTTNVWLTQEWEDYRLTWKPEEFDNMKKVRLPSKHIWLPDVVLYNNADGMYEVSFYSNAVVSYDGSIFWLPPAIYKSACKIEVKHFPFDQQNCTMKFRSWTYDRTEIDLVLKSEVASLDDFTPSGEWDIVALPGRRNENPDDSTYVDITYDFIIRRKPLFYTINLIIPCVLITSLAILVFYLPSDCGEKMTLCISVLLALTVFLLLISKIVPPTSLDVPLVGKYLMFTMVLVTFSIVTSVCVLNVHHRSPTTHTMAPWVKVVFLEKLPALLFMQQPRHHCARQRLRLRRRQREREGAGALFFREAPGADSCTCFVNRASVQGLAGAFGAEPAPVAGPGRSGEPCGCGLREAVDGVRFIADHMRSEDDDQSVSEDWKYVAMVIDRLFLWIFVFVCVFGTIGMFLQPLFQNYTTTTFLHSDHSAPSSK
T1 sequence (Q05901 25-458 V273S partner limits assumed): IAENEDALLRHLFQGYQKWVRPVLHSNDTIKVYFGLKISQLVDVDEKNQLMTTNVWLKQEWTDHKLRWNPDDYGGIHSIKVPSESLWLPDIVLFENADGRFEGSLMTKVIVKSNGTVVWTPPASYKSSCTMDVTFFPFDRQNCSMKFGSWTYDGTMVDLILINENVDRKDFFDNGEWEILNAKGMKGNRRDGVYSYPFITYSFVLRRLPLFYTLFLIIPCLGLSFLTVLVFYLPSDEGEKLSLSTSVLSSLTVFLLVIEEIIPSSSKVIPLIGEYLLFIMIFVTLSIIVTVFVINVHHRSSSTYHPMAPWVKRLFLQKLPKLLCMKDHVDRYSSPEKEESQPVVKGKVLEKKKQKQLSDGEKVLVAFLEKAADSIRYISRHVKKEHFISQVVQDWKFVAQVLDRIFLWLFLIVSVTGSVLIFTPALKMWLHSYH
Procedure: as §1, §2, §3

hα6(R96H) + hβ4 nAChR = biological target: T2, hα6(R96H) + hβ4 nAChR (Homo sapiens, UniProt P30926+Q15825, R96H); test: Oocyte two-electrode voltage clamp; assay type: cell-based; details: 1000 μM ACh; 1 μM atropine co-applied
T2 construct: Full length capped mRNA (i.e., cRNA) was transcribed from linearized plasmids; expressed in transfected cells; host or cells: Xenopus laevis oocytes injected with cRNA
T2 sequence (Q15825 26-494 R96H): as the sequence (Q15825 26-494 R87C) above, with C62R, R71H counted along it
T2 sequence (P30926 22-498, stated change not applied): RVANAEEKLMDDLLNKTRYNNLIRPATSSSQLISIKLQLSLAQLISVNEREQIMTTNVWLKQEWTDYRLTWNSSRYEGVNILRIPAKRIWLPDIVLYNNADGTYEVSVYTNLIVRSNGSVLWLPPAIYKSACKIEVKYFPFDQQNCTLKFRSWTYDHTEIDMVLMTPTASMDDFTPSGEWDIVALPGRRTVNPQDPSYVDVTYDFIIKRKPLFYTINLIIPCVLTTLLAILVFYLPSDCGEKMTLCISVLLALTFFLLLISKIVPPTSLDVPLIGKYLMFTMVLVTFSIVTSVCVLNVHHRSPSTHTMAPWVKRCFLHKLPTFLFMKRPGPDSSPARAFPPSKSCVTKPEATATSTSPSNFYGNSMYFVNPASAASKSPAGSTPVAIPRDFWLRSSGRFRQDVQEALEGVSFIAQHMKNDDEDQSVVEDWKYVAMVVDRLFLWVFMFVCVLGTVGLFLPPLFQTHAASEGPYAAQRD
Procedure: as §1, §2, §3

[3] = biological target: hα6^D57Nhβ4hβ3^V9’S-nAChR (Homo sapiens, UniProt P30926+Q15825, D57N); details: nicotine (100 μM), ACh (100 μM) or atropine (1000 μM)
hα6^D57Nhβ4hβ3^V9’S-nAChR, sequence (Q15825 26-494 D57N): as the sequence (Q15825 26-494 R87C) above, with D32N, C62R counted along it
hα6^D57Nhβ4hβ3^V9’S-nAChR, sequence (P30926 22-498): as the sequence (P30926 22-498, stated change not applied) above
hα6^D57Nhβ4hβ3^V9’S-nAChR, sequence (Q05901 25-458 V273S partner limits assumed): as the sequence (Q05901 25-458 V273S partner limits assumed) above
Procedure: as §1, §2

[4] = biological target: hα6^S156Rhβ4hβ3^V9’S-nAChR (Homo sapiens, UniProt P30926+Q15825, S156R); details: nicotine (100 μM), ACh (100 μM) or atropine (1000 μM)
hα6^S156Rhβ4hβ3^V9’S-nAChR, sequence (Q15825 26-494 S156R): as the sequence (Q15825 26-494 R87C) above, with C62R, S131R counted along it
hα6^S156Rhβ4hβ3^V9’S-nAChR, sequence (P30926 22-498): as the sequence (P30926 22-498, stated change not applied) above
hα6^S156Rhβ4hβ3^V9’S-nAChR, sequence (Q05901 25-458 V273S partner limits assumed): as the sequence (Q05901 25-458 V273S partner limits assumed) above
Procedure: as §1, §2

[5] = biological target: hα6^R87C + hβ4 + hβ3^V9’S nAChR (Homo sapiens, UniProt P30926+Q15825, R87C); details: nicotine (100 μM), ACh (100 μM) or atropine (1000 μM)
hα6^R87C + hβ4 + hβ3^V9’S nAChR, sequence (Q15825 26-494 R87C): as the sequence (Q15825 26-494 R87C) above
hα6^R87C + hβ4 + hβ3^V9’S nAChR, sequence (P30926 22-498): as the sequence (P30926 22-498, stated change not applied) above
hα6^R87C + hβ4 + hβ3^V9’S nAChR, sequence (Q05901 25-458 V273S partner limits assumed): as the sequence (Q05901 25-458 V273S partner limits assumed) above
Procedure: as §1, §2

[6] = biological target: hα6^N171Khβ4β3^V9’S-nAChR (Homo sapiens, UniProt P30926+Q15825, N171K); details: nicotine (100 μM), ACh (100 μM) or atropine (1000 μM)
hα6^N171Khβ4β3^V9’S-nAChR, sequence (Q15825 26-494 N171K): as the sequence (Q15825 26-494 R87C) above, with C62R, N146K counted along it
hα6^N171Khβ4β3^V9’S-nAChR, sequence (P30926 22-498): as the sequence (P30926 22-498, stated change not applied) above
hα6^N171Khβ4β3^V9’S-nAChR, sequence (Q05901 25-458 V273S partner limits assumed): as the sequence (Q05901 25-458 V273S partner limits assumed) above
Procedure: as §1, §2

hα6hβ4hβ3^V9’S-nAChR = hα6hβ4hβ3^V9’S-nAChR (Homo sapiens, UniProt P30926+Q05901+Q15825, V273S); details: nicotine (100 μM), ACh (100 μM) or atropine (1000 μM); spontaneously opening channels
hα6hβ4hβ3^V9’S-nAChR, sequence (Q15825 26-494): as the sequence (Q15825 26-494 R87C) above, with C62R counted along it
hα6hβ4hβ3^V9’S-nAChR, sequence (P30926 22-498): as the sequence (P30926 22-498, stated change not applied) above
hα6hβ4hβ3^V9’S-nAChR, sequence (Q05901 22-458 V273S): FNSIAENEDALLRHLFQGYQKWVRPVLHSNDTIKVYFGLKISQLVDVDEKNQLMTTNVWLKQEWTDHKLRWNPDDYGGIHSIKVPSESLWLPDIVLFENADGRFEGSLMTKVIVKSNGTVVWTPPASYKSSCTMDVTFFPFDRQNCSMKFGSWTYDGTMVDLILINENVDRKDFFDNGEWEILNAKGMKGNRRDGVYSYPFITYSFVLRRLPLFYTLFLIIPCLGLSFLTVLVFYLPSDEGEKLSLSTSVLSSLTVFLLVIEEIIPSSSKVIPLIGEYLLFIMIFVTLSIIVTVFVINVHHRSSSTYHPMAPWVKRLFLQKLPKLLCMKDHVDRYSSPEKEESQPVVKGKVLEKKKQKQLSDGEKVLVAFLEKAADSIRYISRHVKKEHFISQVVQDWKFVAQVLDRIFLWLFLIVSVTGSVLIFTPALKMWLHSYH
Procedure: as §1, §2

hα6(D199Y) + hβ4 + hβ3 nAChR, sequence (Q15825 26-494 D199Y): as the sequence (Q15825 26-494 R87C) above, with C62R, D174Y counted along it
hα6(D199Y) + hβ4 + hβ3 nAChR, sequence (P30926 22-498): as the sequence (P30926 22-498, stated change not applied) above
hα6(D199Y) + hβ4 + hβ3 nAChR, sequence (Q05901 25-458 partner limits assumed): as the sequence (Q05901 25-458 V273S partner limits assumed) above, with S249V counted along it

With CC(=O)OCC[N+](C)(C)C [ACh, acetylcholine] the “nH ± SE (Hill coefficient)” value [1] was 1.1 ± 0.07, the “Mean Imax ± SE (nA)” value ([1]; 1000 μM ACh, 1 μM atropine co-applied) was 494 ± 51 nA and the current response [2] was “not obtained”. The “Mean Imax ± SE (nA)” value (hα6(R96H) + hβ4 nAChR) was 31 ± 4 nA, the “current response (direction)” value [3] was “outward reversible currents” and the “current response (direction)” value [4] was “outward reversible currents”. For the same compound, the current response [5] was “not obtained”, the “current response (direction)” value [6] was “outward reversible currents” and the “current response (direction)” value (hα6hβ4hβ3^V9’S-nAChR) was “robust inward current”.

— publication PMC4022547 (Molecular Brain, 2014)
